# Data taken from the kinase profiling compilation of Christmann-Franck et al. (2016).
# How the values were obtained:
# Test in all cases: radiometric filter-binding kinase assay
# RIPK2 (human) = RIPK2 (human) (UniProt O43353)
# IGF1R (human) = IGF1R (human) (UniProt P08069)
# MAP3K1 (human) = MAP3K1 (human) (UniProt Q13233)
# LCK (mouse) = conditions: accession and sequence are those of the human protein
# FGFR1 (human) = FGFR1 (human) (UniProt P11362)
# MAPK14 (human) = MAPK14 (human) (UniProt Q16539)
# FLT1 (human) = FLT1 (human) (UniProt P17948)
# BRSK1 (human) = BRSK1 (human) (UniProt Q8TDC3)
# CLK2 (human) = CLK2 (human) (UniProt P49760)
# MAPKAPK5 (human) = MAPKAPK5 (human) (UniProt Q8IW41)
# IRAK4 (human) = IRAK4 (human) (UniProt Q9NWZ3)
# MAP3K7 TAB1 (human) = MAP3K7 TAB1 (human) (UniProt Q15750+O43318)
# CAMKK2 (human) = CAMKK2 (human) (UniProt Q96RR4)
# TAOK1 (human) = TAOK1 (human) (UniProt Q7L7X3)
# MARK1 (human) = MARK1 (human) (UniProt Q9P0L2)
# GSK3B (human) = GSK3B (human) (UniProt P49841)
# MAPK15 (human) = MAPK15 (human) (UniProt Q8TD08)
# PRKCZ (human) = PRKCZ (human) (UniProt Q05513)
# HIPK1 (human) = HIPK1 (human) (UniProt Q86Z02)
# [1] = tested on: AKT2 (human), P31751 [S474D]
# ROCK2 (rat) = conditions: accession and sequence are those of the human protein
# NTRK1 (human) = NTRK1 (human) (UniProt P04629)
# SRC (human) = SRC (human) (UniProt P12931)
# [2] = molecular target: STK11 CAB39 STRADA (human) (UniProt Q9Y376+Q7RTN6+Q15831)
# MELK (human) = MELK (human) (UniProt Q14680)
# EPHA2 (human) = EPHA2 (human) (UniProt P29317)
# HIPK3 (human) = HIPK3 (human) (UniProt Q9H422)
# RPS6KA3 KD1 KD2 (human) = RPS6KA3 KD1 KD2 (human) (UniProt P51812)
# CSNK1D (human) = CSNK1D (human) (UniProt P48730)
# CSK (human) = CSK (human) (UniProt P41240)
# JAK2 JH1 JH2 (human) = JAK2 JH1 JH2 (human) (UniProt O60674)
# MINK1 (human) = MINK1 (human) (UniProt Q8N4C8)
# DYRK3 (human) = DYRK3 (human) (UniProt O43781)
# INSR (human) = INSR (human) (UniProt P06213)
# MAPK11 (human) = MAPK11 (human) (UniProt Q15759)
# MINK1 (human), sequence (Q8N4C8 whole entry, looked up): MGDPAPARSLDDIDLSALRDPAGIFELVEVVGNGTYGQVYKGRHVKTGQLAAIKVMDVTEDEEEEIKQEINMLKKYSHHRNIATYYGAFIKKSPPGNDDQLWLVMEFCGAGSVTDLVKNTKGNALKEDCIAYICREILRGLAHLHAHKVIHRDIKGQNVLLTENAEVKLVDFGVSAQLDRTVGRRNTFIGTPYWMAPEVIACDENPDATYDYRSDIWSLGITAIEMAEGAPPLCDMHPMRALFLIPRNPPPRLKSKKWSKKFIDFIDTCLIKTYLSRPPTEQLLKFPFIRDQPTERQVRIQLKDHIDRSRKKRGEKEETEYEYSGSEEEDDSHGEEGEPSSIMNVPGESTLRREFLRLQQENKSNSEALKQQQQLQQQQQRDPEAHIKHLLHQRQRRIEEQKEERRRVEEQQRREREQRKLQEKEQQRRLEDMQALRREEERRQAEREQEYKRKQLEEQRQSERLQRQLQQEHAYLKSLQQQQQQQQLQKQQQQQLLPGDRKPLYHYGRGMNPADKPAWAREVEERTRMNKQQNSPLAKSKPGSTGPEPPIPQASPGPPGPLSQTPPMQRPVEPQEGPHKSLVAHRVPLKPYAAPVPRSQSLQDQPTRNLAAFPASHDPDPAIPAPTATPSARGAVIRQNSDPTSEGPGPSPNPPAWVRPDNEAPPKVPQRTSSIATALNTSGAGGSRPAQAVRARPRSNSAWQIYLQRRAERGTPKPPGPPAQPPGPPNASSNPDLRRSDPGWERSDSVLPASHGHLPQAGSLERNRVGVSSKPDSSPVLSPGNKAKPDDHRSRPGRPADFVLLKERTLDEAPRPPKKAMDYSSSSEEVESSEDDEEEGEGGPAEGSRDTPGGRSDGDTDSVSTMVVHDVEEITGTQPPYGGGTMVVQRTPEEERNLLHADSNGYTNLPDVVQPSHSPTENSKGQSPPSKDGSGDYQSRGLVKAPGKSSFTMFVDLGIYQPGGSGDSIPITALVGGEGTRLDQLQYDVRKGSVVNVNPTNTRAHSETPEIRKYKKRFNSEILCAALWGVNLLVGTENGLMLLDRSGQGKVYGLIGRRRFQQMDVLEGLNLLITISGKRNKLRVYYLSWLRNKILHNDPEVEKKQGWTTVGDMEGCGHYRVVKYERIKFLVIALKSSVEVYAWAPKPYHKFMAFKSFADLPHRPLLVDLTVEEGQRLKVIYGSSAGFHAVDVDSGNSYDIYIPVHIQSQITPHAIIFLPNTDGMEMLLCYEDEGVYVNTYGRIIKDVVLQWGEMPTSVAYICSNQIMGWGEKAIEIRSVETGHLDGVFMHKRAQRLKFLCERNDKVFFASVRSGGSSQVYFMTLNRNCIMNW
# SRC (human), sequence (P12931 whole entry, looked up): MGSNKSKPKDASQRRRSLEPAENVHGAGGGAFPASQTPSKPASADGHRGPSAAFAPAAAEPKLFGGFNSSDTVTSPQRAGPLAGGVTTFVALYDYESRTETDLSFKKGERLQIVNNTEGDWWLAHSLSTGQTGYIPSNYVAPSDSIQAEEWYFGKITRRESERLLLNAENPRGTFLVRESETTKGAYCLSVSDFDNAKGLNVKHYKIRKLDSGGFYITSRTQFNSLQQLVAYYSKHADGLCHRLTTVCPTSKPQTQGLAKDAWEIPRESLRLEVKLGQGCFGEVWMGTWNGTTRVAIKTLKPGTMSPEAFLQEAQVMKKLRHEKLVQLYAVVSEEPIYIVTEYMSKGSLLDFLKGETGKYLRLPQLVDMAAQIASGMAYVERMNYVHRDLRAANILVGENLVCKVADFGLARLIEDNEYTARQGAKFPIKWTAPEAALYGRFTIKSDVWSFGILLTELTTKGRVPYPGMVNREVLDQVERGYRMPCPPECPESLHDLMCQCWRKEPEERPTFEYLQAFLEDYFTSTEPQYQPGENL
# MARK1 (human), sequence (Q9P0L2 whole entry, looked up): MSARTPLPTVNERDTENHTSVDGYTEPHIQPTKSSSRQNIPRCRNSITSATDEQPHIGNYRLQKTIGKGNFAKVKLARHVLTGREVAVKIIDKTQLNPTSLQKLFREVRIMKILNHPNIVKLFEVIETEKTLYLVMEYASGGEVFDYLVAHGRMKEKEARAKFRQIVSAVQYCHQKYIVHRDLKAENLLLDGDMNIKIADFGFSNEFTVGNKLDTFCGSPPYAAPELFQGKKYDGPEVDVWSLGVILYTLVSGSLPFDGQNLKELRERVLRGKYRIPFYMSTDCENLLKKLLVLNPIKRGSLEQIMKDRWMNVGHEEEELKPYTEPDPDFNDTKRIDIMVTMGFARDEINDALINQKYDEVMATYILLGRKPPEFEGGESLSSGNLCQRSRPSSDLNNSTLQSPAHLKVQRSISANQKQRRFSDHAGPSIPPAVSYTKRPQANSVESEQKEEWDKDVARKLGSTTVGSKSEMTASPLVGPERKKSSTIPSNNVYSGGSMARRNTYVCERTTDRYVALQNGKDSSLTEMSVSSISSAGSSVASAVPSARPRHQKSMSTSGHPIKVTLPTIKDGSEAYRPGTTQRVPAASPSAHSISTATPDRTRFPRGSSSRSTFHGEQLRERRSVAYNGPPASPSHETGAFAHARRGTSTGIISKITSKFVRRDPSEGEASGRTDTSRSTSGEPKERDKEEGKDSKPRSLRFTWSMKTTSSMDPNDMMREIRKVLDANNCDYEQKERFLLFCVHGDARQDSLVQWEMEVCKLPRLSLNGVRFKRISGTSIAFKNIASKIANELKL
# HIPK1 (human), sequence (Q86Z02 whole entry, looked up): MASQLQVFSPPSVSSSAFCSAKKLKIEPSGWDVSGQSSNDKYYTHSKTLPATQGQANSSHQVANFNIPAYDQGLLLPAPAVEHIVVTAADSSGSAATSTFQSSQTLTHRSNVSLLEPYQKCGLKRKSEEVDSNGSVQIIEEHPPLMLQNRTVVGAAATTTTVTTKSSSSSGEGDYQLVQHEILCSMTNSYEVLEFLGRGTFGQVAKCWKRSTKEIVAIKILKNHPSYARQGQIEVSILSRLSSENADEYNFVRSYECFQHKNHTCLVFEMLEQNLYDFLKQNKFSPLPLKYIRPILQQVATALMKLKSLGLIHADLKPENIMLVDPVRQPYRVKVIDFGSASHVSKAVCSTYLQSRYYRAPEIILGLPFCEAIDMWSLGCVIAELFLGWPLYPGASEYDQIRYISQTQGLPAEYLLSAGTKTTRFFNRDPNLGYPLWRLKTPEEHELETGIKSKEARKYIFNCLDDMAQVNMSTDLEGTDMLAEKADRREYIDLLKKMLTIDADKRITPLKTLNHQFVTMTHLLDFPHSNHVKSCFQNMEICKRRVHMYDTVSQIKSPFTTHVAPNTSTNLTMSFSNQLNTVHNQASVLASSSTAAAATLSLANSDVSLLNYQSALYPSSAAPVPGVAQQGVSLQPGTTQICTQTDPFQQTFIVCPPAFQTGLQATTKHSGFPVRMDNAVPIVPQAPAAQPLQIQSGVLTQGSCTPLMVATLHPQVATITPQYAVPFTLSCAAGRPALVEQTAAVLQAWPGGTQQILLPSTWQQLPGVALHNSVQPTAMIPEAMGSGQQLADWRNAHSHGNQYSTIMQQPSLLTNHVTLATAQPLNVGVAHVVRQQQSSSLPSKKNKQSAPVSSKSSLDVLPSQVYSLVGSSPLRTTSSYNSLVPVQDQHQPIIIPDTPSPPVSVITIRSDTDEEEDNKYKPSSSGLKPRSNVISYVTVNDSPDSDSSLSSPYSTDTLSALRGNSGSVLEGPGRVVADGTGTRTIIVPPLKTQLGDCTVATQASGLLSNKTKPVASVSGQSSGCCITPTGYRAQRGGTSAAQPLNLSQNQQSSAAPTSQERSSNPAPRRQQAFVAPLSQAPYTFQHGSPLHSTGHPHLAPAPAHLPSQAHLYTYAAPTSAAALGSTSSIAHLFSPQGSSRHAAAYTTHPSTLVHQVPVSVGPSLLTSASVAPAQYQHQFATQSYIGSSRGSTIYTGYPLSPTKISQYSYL
# PRKCZ (human), sequence (Q05513 whole entry, looked up): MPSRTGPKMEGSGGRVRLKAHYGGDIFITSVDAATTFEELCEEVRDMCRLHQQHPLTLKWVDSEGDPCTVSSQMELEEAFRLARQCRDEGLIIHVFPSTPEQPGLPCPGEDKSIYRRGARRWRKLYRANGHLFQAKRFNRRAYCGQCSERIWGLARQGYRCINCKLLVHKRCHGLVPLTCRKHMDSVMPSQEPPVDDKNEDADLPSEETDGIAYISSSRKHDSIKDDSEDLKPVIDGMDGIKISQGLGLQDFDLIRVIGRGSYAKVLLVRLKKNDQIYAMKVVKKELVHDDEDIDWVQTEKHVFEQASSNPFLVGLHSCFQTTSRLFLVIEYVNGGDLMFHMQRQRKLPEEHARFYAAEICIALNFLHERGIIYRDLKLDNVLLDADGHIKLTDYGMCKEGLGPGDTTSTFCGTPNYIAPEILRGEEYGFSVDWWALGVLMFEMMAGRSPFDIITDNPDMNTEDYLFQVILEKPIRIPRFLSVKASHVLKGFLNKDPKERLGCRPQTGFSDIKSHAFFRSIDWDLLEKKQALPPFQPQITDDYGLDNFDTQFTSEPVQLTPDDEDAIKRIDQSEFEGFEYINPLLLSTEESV
# RIPK2 (human), sequence (O43353 whole entry, looked up): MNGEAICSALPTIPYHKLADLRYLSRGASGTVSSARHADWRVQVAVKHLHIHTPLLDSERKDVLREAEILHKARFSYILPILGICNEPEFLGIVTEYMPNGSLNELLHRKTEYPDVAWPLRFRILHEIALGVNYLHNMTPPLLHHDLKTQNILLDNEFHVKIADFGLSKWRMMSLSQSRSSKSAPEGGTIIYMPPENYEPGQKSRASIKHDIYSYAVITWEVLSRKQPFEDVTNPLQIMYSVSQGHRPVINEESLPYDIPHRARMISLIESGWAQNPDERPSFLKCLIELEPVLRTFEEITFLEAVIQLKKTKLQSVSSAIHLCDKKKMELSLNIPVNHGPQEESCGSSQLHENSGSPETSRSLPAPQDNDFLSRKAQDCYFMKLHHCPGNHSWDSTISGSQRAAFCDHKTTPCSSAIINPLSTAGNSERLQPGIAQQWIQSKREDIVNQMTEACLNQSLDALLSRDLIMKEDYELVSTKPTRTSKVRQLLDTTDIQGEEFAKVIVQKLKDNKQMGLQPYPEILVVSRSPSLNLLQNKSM
smiles,measurement,setting,value
FC(F)(F)c1ccc(-c2ccc(Oc3cncc4sc(-c5nn[nH]n5)cc34)cc2)cc1,residual activity,RIPK2 (human); compound 1.0 µM,83%
same,residual activity,RIPK2 (human); compound 10.0 µM,30%
same,residual activity,IGF1R (human); compound 1.0 µM,74%
same,residual activity,IGF1R (human); compound 10.0 µM,74%
same,residual activity,MAP3K1 (human); compound 1.0 µM,109%
same,residual activity,MAP3K1 (human); compound 10.0 µM,93%
same,residual activity,LCK (mouse); compound 1.0 µM,100%
same,residual activity,LCK (mouse); compound 10.0 µM,98%
same,residual activity,FGFR1 (human); compound 1.0 µM,102%
same,residual activity,FGFR1 (human); compound 10.0 µM,76%
same,residual activity,MAPK14 (human); compound 1.0 µM,102%
same,residual activity,MAPK14 (human); compound 10.0 µM,107%
same,residual activity,FLT1 (human); compound 1.0 µM,96%
same,residual activity,FLT1 (human); compound 10.0 µM,29%
same,residual activity,BRSK1 (human); compound 1.0 µM,138%
same,residual activity,BRSK1 (human); compound 10.0 µM,104%
same,residual activity,CLK2 (human); compound 1.0 µM,73%
same,residual activity,CLK2 (human); compound 10.0 µM,14%
same,residual activity,MAPKAPK5 (human); compound 1.0 µM,110%
same,residual activity,MAPKAPK5 (human); compound 10.0 µM,67%
same,residual activity,IRAK4 (human); compound 1.0 µM,90%
same,residual activity,IRAK4 (human); compound 10.0 µM,88%
same,residual activity,MAP3K7 TAB1 (human); compound 1.0 µM,104%
same,residual activity,MAP3K7 TAB1 (human); compound 10.0 µM,67%
same,residual activity,CAMKK2 (human); compound 1.0 µM,105%
same,residual activity,CAMKK2 (human); compound 10.0 µM,44%
same,residual activity,TAOK1 (human); compound 1.0 µM,65%
same,residual activity,TAOK1 (human); compound 10.0 µM,30%
same,residual activity,MARK1 (human); compound 1.0 µM,99%
same,residual activity,MARK1 (human); compound 10.0 µM,72%
same,residual activity,GSK3B (human); compound 1.0 µM,63%
same,residual activity,GSK3B (human); compound 10.0 µM,14%
same,residual activity,MAPK15 (human); compound 1.0 µM,34%
same,residual activity,MAPK15 (human); compound 10.0 µM,4%
same,residual activity,PRKCZ (human); compound 1.0 µM,126%
same,residual activity,PRKCZ (human); compound 10.0 µM,60%
same,residual activity,HIPK1 (human); compound 1.0 µM,65%
same,residual activity,HIPK1 (human); compound 10.0 µM,12%
same,residual activity,[1]; compound 1.0 µM,106%
same,residual activity,[1]; compound 10.0 µM,98%
same,residual activity,ROCK2 (rat); compound 1.0 µM,90%
same,residual activity,ROCK2 (rat); compound 10.0 µM,93%
same,residual activity,NTRK1 (human); compound 1.0 µM,104%
same,residual activity,NTRK1 (human); compound 10.0 µM,71%
same,residual activity,SRC (human); compound 1.0 µM,108%
same,residual activity,SRC (human); compound 10.0 µM,95%
same,residual activity,[2]; compound 1.0 µM,85%
same,residual activity,[2]; compound 10.0 µM,64%
same,residual activity,MELK (human); compound 1.0 µM,81%
same,residual activity,MELK (human); compound 10.0 µM,19%
same,residual activity,EPHA2 (human); compound 1.0 µM,126%
same,residual activity,EPHA2 (human); compound 10.0 µM,94%
same,residual activity,HIPK3 (human); compound 1.0 µM,63%
same,residual activity,HIPK3 (human); compound 10.0 µM,10%
same,residual activity,RPS6KA3 KD1 KD2 (human); compound 1.0 µM,132%
same,residual activity,RPS6KA3 KD1 KD2 (human); compound 10.0 µM,88%
same,residual activity,CSNK1D (human); compound 1.0 µM,86%
same,residual activity,CSNK1D (human); compound 10.0 µM,41%
same,residual activity,CSK (human); compound 1.0 µM,100%
same,residual activity,CSK (human); compound 10.0 µM,95%
same,residual activity,JAK2 JH1 JH2 (human); compound 1.0 µM,99%
same,residual activity,JAK2 JH1 JH2 (human); compound 10.0 µM,46%
same,residual activity,MINK1 (human); compound 1.0 µM,96%
same,residual activity,MINK1 (human); compound 10.0 µM,87%
same,residual activity,DYRK3 (human); compound 1.0 µM,18%
same,residual activity,DYRK3 (human); compound 10.0 µM,3%
same,residual activity,INSR (human); compound 1.0 µM,100%
same,residual activity,INSR (human); compound 10.0 µM,91%
same,residual activity,MAPK11 (human); compound 1.0 µM,102%
same,residual activity,MAPK11 (human); compound 10.0 µM,100%
